# Test results as given in patent US8076487B2, “Pyridone derivative and herbicide” (Kumiai Chemical Industry Co., Ltd., priority 2006, dated 2011).
# Columns and labels:
# Assay type in all cases: in vivo
# [1] = system: slender amaranth (Amaranthus viridis L.); experiment: Test Example 3: herbicidal effect by application to upland field (foliage treatment); conditions: foliage treatment, 1,000 g active ingredient per 1 hectare, 14th day after application, greenhouse
# In short: (§1)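 Upland foliage test in greenhouse pots of field soil: seedlings sprayed at two weeks post-sowing with 1,000 g/ha active ingredient (wettable powder, 1,000 L water/ha). Scored 14 d after application.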
# [2] = system: velvetleaf (Abutilon theophrasti medicus); experiment: as above; conditions: foliage treatment, 1,000 g active ingredient per 1 hectare, 14th day after application, greenhouse
# In short: as §1
# [3] = system: barnyardgrass (Echinochloa crus-galli (L.) P. Beauv. var. crus-galli); experiment: as above; conditions: foliage treatment, 1,000 g active ingredient per 1 hectare, 14th day after application, greenhouse
# In short: as §1
# [4] = system: green foxtail (Setaria viridis (L.) P. Beauv.); experiment: as above; conditions: foliage treatment, 1,000 g active ingredient per 1 hectare, 14th day after application, greenhouse
# In short: as §1
# [5] = system: heartshape false pickerelweed (Monochoria vaginalis (Burm.f.) C.Presl); experiment: Test Example 1: herbicidal effect by soil application to paddy field; conditions: paddy field soil application; active ingredient 1,000 g per 1 hectare; wettable powder added dropwise to water surface the day after sowing; examined on the 21st day after application
# In short: (§2)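 Plants were sown in flooded (3 cm) paddy soil and evaluated for herbicidal effect 21 days after soil application in a greenhouse.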
# [6] = system: early watergrass (Echinochloa oryzicola Vasing); experiment: as above; conditions: paddy field soil application; active ingredient 1,000 g per 1 hectare; wettable powder added dropwise to water surface the day after sowing; examined on the 21st day after application
# In short: as §2
# [7] = system: Japanese bulrush (Scirpus juncoides Roxb.); experiment: as above; conditions: paddy field soil application; active ingredient 1,000 g per 1 hectare; wettable powder added dropwise to water surface the day after sowing; examined on the 21st day after application
# In short: as §2
# [8] = system: slender amaranth (Amaranthus viridis L.); experiment: Test Example 2: herbicidal effect by soil application to upland field; conditions: soil surface spray, upland field soil, 1,000 g active ingredient per hectare, 21st day after application
# In short: (§3)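 A standard visual rating of herbicidal effect, made 21 days after treatment, gives the value. Treatment consisted of a uniform spray of water-diluted wettable powder on the soil covering newly sown seeds, equivalent to 1,000 g active ingredient and 1,000 liters per hectare.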
# [9] = system: velvetleaf (Abutilon theophrasti medicus); experiment: as above; conditions: soil surface spray, upland field soil, 1,000 g active ingredient per hectare, 21st day after application
# In short: as §3
# [10] = system: barnyardgrass (Echinochloa crus-galli (L.) P. Beauv. var. crus-galli); experiment: as above; conditions: soil surface spray, upland field soil, 1,000 g active ingredient per hectare, 21st day after application
# In short: as §3
# [11] = system: green foxtail (Setaria viridis (L.) P. Beauv.); experiment: as above; conditions: soil surface spray, upland field soil, 1,000 g active ingredient per hectare, 21st day after application
# In short: as §3
SMILES,"herbicidal effect, Slender Amaranth [1]","herbicidal effect, Velvetleaf [2]","herbicidal effect, Barnyardgrass [3]","herbicidal effect, Green Foxtail [4]","herbicidal effect, Monochoria vaginalis (Burm. f.) C. Presl [5]","herbicidal effect, Echinochloa oryzicola Vasing [6]","herbicidal effect, Scirpus juncoides Roxb. [7]","herbicidal effect (index), Slender Amaranth [8]","herbicidal effect (index), Velvetleaf [9]","herbicidal effect (index), Barnyardgrass [10]","herbicidal effect (index), Green Foxtail [11]"
O=C1CCCC(O)=C1C(=O)c1ccc(C(F)(F)F)n(CC2CCOC2)c1=O (stereo not shown) [I-154],5 (90% or more of herbicidal effect and crop phytotoxicity),5 (90% or more of herbicidal effect and crop phytotoxicity),4 (70 to less than 90% of herbicidal effect and crop phytotoxicity),5 (90% or more of herbicidal effect and crop phytotoxicity),5 (90% or more of herbicidal effect and crop phytotoxicity),5 (90% or more of herbicidal effect and crop phytotoxicity),5 (90% or more of herbicidal effect and crop phytotoxicity),5 (90% or more of herbicidal effect and crop phytotoxicity),5 (90% or more of herbicidal effect and crop phytotoxicity),4 (70 to less than 90% of herbicidal effect and crop phytotoxicity),3 (50 to less than 70% of herbicidal effect and crop phytotoxicity)
Nn1c(C(F)(F)F)ccc(C(=O)C2=C(O)CCCC2=O)c1=O [I-156],5 (90% or more of herbicidal effect and crop phytotoxicity),5 (90% or more of herbicidal effect and crop phytotoxicity),5 (90% or more of herbicidal effect and crop phytotoxicity),4 (70 to less than 90% of herbicidal effect and crop phytotoxicity),5 (90% or more of herbicidal effect and crop phytotoxicity),5 (90% or more of herbicidal effect and crop phytotoxicity),5 (90% or more of herbicidal effect and crop phytotoxicity),5 (90% or more of herbicidal effect and crop phytotoxicity),5 (90% or more of herbicidal effect and crop phytotoxicity),5 (90% or more of herbicidal effect and crop phytotoxicity),4 (70 to less than 90% of herbicidal effect and crop phytotoxicity)
CCNn1c(C(F)(F)F)ccc(C(=O)C2=C(O)CCCC2=O)c1=O [I-158],5 (90% or more of herbicidal effect and crop phytotoxicity),5 (90% or more of herbicidal effect and crop phytotoxicity),5 (90% or more of herbicidal effect and crop phytotoxicity),5 (90% or more of herbicidal effect and crop phytotoxicity),5 (90% or more of herbicidal effect and crop phytotoxicity),5 (90% or more of herbicidal effect and crop phytotoxicity),5 (90% or more of herbicidal effect and crop phytotoxicity),5 (90% or more of herbicidal effect and crop phytotoxicity),5 (90% or more of herbicidal effect and crop phytotoxicity),5 (90% or more of herbicidal effect and crop phytotoxicity),5 (90% or more of herbicidal effect and crop phytotoxicity)
CCCNn1c(C(F)(F)F)ccc(C(=O)C2=C(O)CCCC2=O)c1=O [I-159],5 (90% or more of herbicidal effect and crop phytotoxicity),5 (90% or more of herbicidal effect and crop phytotoxicity),5 (90% or more of herbicidal effect and crop phytotoxicity),5 (90% or more of herbicidal effect and crop phytotoxicity),5 (90% or more of herbicidal effect and crop phytotoxicity),5 (90% or more of herbicidal effect and crop phytotoxicity),5 (90% or more of herbicidal effect and crop phytotoxicity),5 (90% or more of herbicidal effect and crop phytotoxicity),5 (90% or more of herbicidal effect and crop phytotoxicity),5 (90% or more of herbicidal effect and crop phytotoxicity),5 (90% or more of herbicidal effect and crop phytotoxicity)
CCCCNn1c(C(F)(F)F)ccc(C(=O)C2=C(O)CCCC2=O)c1=O [I-161],5 (90% or more of herbicidal effect and crop phytotoxicity),5 (90% or more of herbicidal effect and crop phytotoxicity),5 (90% or more of herbicidal effect and crop phytotoxicity),5 (90% or more of herbicidal effect and crop phytotoxicity),5 (90% or more of herbicidal effect and crop phytotoxicity),5 (90% or more of herbicidal effect and crop phytotoxicity),5 (90% or more of herbicidal effect and crop phytotoxicity),5 (90% or more of herbicidal effect and crop phytotoxicity),5 (90% or more of herbicidal effect and crop phytotoxicity),5 (90% or more of herbicidal effect and crop phytotoxicity),5 (90% or more of herbicidal effect and crop phytotoxicity)
CC(C)CNn1c(C(F)(F)F)ccc(C(=O)C2=C(O)CCCC2=O)c1=O [I-162],5 (90% or more of herbicidal effect and crop phytotoxicity),5 (90% or more of herbicidal effect and crop phytotoxicity),5 (90% or more of herbicidal effect and crop phytotoxicity),5 (90% or more of herbicidal effect and crop phytotoxicity),5 (90% or more of herbicidal effect and crop phytotoxicity),5 (90% or more of herbicidal effect and crop phytotoxicity),5 (90% or more of herbicidal effect and crop phytotoxicity),4 (70 to less than 90% of herbicidal effect and crop phytotoxicity),5 (90% or more of herbicidal effect and crop phytotoxicity),5 (90% or more of herbicidal effect and crop phytotoxicity),5 (90% or more of herbicidal effect and crop phytotoxicity)
O=C1CCCC(O)=C1C(=O)c1ccc(C(F)(F)F)n(NCC2CC2)c1=O [I-164],5 (90% or more of herbicidal effect and crop phytotoxicity),5 (90% or more of herbicidal effect and crop phytotoxicity),5 (90% or more of herbicidal effect and crop phytotoxicity),5 (90% or more of herbicidal effect and crop phytotoxicity),5 (90% or more of herbicidal effect and crop phytotoxicity),5 (90% or more of herbicidal effect and crop phytotoxicity),5 (90% or more of herbicidal effect and crop phytotoxicity),5 (90% or more of herbicidal effect and crop phytotoxicity),5 (90% or more of herbicidal effect and crop phytotoxicity),5 (90% or more of herbicidal effect and crop phytotoxicity),5 (90% or more of herbicidal effect and crop phytotoxicity)
O=C1CCCC(O)=C1C(=O)c1ccc(C(F)(F)F)n(NCCCF)c1=O [I-168],5 (90% or more of herbicidal effect and crop phytotoxicity),5 (90% or more of herbicidal effect and crop phytotoxicity),5 (90% or more of herbicidal effect and crop phytotoxicity),5 (90% or more of herbicidal effect and crop phytotoxicity),5 (90% or more of herbicidal effect and crop phytotoxicity),5 (90% or more of herbicidal effect and crop phytotoxicity),5 (90% or more of herbicidal effect and crop phytotoxicity),5 (90% or more of herbicidal effect and crop phytotoxicity),5 (90% or more of herbicidal effect and crop phytotoxicity),5 (90% or more of herbicidal effect and crop phytotoxicity),5 (90% or more of herbicidal effect and crop phytotoxicity)
